pIC50: −log10 of the molar value.
Key:
[1] = system: MCF-7 cells; test: Cell viability assay, MCF-7 cells (CellTiter-Glo, 168 h); type: cell-based; details: Homo sapiens, MCF7
Method in brief: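 MCF-7 cells (about 3,000/well) were incubated with compound at 8 concentrations for 168 h at 37 °C, 5% CO2. Viability was read by CellTiter-Glo luminescence, and IC50 intervals were derived from survival rates.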

[2] = molecular target: T1, CDK6/CyclinD1 (Homo sapiens, UniProt Q00534); test: In vitro cell-free CDK6/CyclinD1 kinase activity assay (TR-FRET); type: biochemical; details: ATP at Km
T1 construct: purchased Carna 04-114
Method in brief: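 TR-FRET readout: reaction stopped with EDTA-containing detection buffer holding peptide antibody and Sa-XL665, 1 h at room temperature, then 665/615 nm emission ratio (excitation 330 nm) taken as activity. 8-10 compound concentrations from DMSO stocks at 200× working concentration; IC50 fitted versus no-inhibitor and no-enzyme controls.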

T1 sequence (Q00534 whole entry): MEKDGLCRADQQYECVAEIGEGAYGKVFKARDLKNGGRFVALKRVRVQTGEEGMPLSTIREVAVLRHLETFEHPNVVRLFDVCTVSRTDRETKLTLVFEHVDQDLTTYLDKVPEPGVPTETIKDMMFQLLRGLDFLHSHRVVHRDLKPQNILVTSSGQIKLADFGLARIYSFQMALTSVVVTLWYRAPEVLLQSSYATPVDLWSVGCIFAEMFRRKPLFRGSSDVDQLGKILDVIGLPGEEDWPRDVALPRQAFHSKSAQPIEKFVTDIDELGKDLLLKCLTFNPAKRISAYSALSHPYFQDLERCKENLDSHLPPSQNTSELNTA
T1 sequence (P24385 whole entry partner): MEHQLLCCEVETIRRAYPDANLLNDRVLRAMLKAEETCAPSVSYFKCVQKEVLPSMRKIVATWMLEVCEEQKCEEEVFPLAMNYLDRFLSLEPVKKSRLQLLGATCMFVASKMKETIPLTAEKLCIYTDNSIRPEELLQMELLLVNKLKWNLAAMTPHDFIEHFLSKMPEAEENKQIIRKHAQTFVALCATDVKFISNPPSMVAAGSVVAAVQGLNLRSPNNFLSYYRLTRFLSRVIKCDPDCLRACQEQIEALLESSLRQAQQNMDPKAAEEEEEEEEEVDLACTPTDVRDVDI

`[2H]C([2H])([2H])N(C(=O)c1cc2cnc(Nc3ccc(N4CCNCC4)cn3)nn2c1C1=CCOCC1)C([2H])([2H])[2H]` [Example 122] was tested, and the pIC50 [1] was > 6.30 and the pIC50 [2] was > 7.00.
With `N#Cc1cc2cnc(Nc3ccc(N4CCNCC4)cc3)nn2c1-c1ccccc1` [Example 3] the pIC50 [1] was > 6.30 and the pIC50 [2] was > 7.00.
With `COc1ccc(-c2c(C#N)cc3cnc(Nc4ccc(N5CCNCC5)cc4)nn23)cn1` [Example 18] the pIC50 [1] was > 6.30 and the pIC50 [2] was > 7.00.
For `N#Cc1cc2cnc(Nc3ccc(N4CCNCC4)cc3)nn2c1N1CCCC1` [Example 6], the pIC50 [1] was > 6.30 and the pIC50 [2] was > 7.00.
With `[2H]C([2H])([2H])N(C(=O)c1cc2cnc(Nc3ccc(N4CCN(C)CC4)cn3)nn2c1-c1ccccc1)C([2H])([2H])[2H]` [Example 120] the pIC50 [1] was > 6.30 and the pIC50 [2] was > 7.00.
`Cc1ccc(-c2cc3cnc(Nc4ccc(N5CCNCC5)cn4)nn3c2C2=CCCC2)s1` [Example 83] was tested, and the pIC50 [1] was 5.60 to 6.30 and the pIC50 [2] was 6.00 to 7.00.

From patent US20230002393A1, “CDK KINASE INHIBITOR” (BEIJING BENICALL BIOTECH CO., LTD., priority 2019, published 2023)
